{"source": "patent US9586907B2", "about": "“Isothiocyanate compounds, pharmaceutical compositions, and uses thereof” (priority 2006, dated 2017)", "key": {"M. intracellularie": {"tested_on": "M. intracellularie", "assay": "MIC, M. intracellularie", "assay_type": "cell-based", "conditions": "M. intracellularie"}, "M. avium": {"tested_on": "M. avium", "assay": "MIC, M. avium", "assay_type": "cell-based", "conditions": "M. avium"}, "M. scrofulaceum": {"tested_on": "M. scrofulaceum", "assay": "MIC, M. scrofulaceum", "assay_type": "cell-based", "conditions": "M. scrofulaceum"}, "M. cansassi": {"tested_on": "M. cansassi", "assay": "MIC, M. cansassi", "assay_type": "cell-based", "conditions": "M. cansassi"}, "M. fortuitum": {"tested_on": "M. fortuitum", "assay": "MIC, M. fortuitum", "assay_type": "cell-based", "conditions": "M. fortuitum"}, "M. tuberculosis W4": {"tested_on": "M. tuberculosis W4", "assay": "MIC, M. tuberculosis W4", "assay_type": "cell-based", "protocol": "(§1) Next, several of the bifunctional ITC compounds were tested for their ability to inhibit the growth of some clinical isolates of Mycobacteria, the results of which are summarized in Table 3 below."}, "M. tuberculosis 210": {"tested_on": "M. tuberculosis 210", "assay": "MIC, M. tuberculosis 210", "assay_type": "cell-based", "protocol": "as §1"}, "M. tuberculosis W": {"tested_on": "M. tuberculosis W", "assay": "MIC, M. tuberculosis W", "assay_type": "cell-based", "protocol": "as §1"}, "M. tuberculosis H37Rv": {"tested_on": "M. tuberculosis H37Rv", "assay": "MIC, M. tuberculosis H37Rv", "assay_type": "cell-based", "protocol": "as §1"}, "M. tuberculosis CDC1551": {"tested_on": "M. tuberculosis CDC1551", "assay": "MIC, M. tuberculosis CDC1551", "assay_type": "cell-based", "protocol": "as §1"}, "M. tuberculosis P": {"tested_on": "M. tuberculosis P", "assay": "MIC, M. tuberculosis P", "assay_type": "cell-based", "protocol": "as §1"}, "M. tuberculosis AB": {"tested_on": "M. tuberculosis AB", "assay": "MIC, M. tuberculosis AB", "assay_type": "cell-based", "protocol": "as §1"}, "M. bovis BCG": {"tested_on": "M. bovis BCG", "assay": "microbe, parasite or virus in culture", "assay_type": "cell-based"}, "[1]": {"tested_on": "human acute monocytic leukemia cells (THP1 cells)", "assay": "Growth of THP1 cells, MTT metabolic assay", "assay_type": "cell-based", "conditions": "highest dosage of 32 μg/mL, 24 hours", "protocol": "THP1 cells were either mock-treated (DMSO vehicle alone), or treated with increasing doses of new compounds 37 and 45, from 0 to 32 μg/mL. Cells were incubated in the presence of compound for 24 hours, and subsequently were assayed for total cell viability using an MTT, metabolic assay."}, "[2]": {"assay": "In vivo tolerance in mice", "conditions": "highest dose, 50 mg/kg"}, "[3]": {"tested_on": "Mycobacterium tuberculosis H37Rv strain", "assay": "In vitro infection model, bacterial growth inhibition in infected macrophages", "assay_type": "cell-based", "conditions": "M. tuberculosis H37Rv; up to 1 μg/mL; Rifampicin control", "source_text": "Rifampicin was used as a control for this experiment."}, "virus (92TH594)": {"tested_on": "virus (92TH594)", "assay": "Viral proliferation in PBMC, p24 viral antigen", "assay_type": "cell-based", "conditions": "for P24 values: PBMC"}, "Mycobacteria": {"tested_on": "Mycobacteria", "assay_type": "cell-based", "conditions": "Table 3"}, "[4]": {"tested_on": "human peritoneal macrophages infected with Mycobacterium tuberculosis H37Rv strain", "assay": "In vitro infection model, cytotoxicity", "conditions": "up to 1 μg/mL; Rifampicin control"}, "Candida albicans 90028": {"tested_on": "Candida albicans 90028", "assay": "Anti-fungal MIC, Candida albicans 90028", "conditions": "Candida albicans 90028"}, "Candida albicans 90030": {"tested_on": "Candida albicans 90030", "assay": "Anti-fungal MIC, Candida albicans 90030", "conditions": "Candida albicans 90030"}, "Candida dlabrata 250^mdr": {"tested_on": "Candida dlabrata 250^mdr", "assay": "Anti-fungal MIC, Candida dlabrata 250^mdr", "conditions": "Candida dlabrata 250^mdr; MIC determined at 48 hours of growth"}, "[5]": {"tested_on": "Candida albicans 5108^mdr", "assay": "Anti-fungal MIC, Candida albicans 5108^mdr", "conditions": "Candida albicans 5108^mdr"}, "[6]": {"tested_on": "Candida parapsilosis 22019", "assay": "Anti-fungal MIC, Candida parapsilosis 22019", "conditions": "Candida parapsilosis 22019"}, "[7]": {"tested_on": "Aspergillus fumigatus Rit 1", "assay": "Anti-fungal MIC, Aspergillus fumigatus Rit 1", "conditions": "Aspergillus fumigatus Rit 1"}, "[8]": {"tested_on": "Aspergillus fumigatus Rit 11", "assay": "Anti-fungal MIC, Aspergillus fumigatus Rit 11", "conditions": "Aspergillus fumigatus Rit 11"}, "[9]": {"tested_on": "Aspergillus fumigatus Rit 21", "assay": "Anti-fungal MIC, Aspergillus fumigatus Rit 21", "conditions": "Aspergillus fumigatus Rit 21"}, "[10]": {"tested_on": "Cryptococcus neoformans CNH99", "assay": "Anti-fungal MIC, Cryptococcus neoformans CNH99", "conditions": "Cryptococcus neoformans CNH99"}}, "note": "Marks after values point to notes of the source that are not given here."}
{"smiles": "OCCCCCCCCN=C=S", "note": "[Compound 45, HO—(CH2)8—N═C═S]", "values": [{"measurement": "MIC", "setting": "M. intracellularie", "value": 4, "unit": "µg/mL"}, {"measurement": "MIC", "setting": "M. avium", "value": 4, "unit": "µg/mL"}, {"measurement": "MIC", "setting": "M. scrofulaceum", "value": 8, "unit": "µg/mL"}, {"measurement": "MIC", "setting": "M. cansassi", "value": 1, "unit": "µg/mL"}, {"measurement": "MIC", "setting": "M. fortuitum", "value": 4, "unit": "µg/mL"}, {"measurement": "MIC", "setting": "M. tuberculosis W4", "value": 1, "unit": "µg/mL"}, {"measurement": "MIC", "setting": "M. tuberculosis 210", "value": 1, "unit": "µg/mL"}, {"measurement": "MIC", "setting": "M. tuberculosis W", "value": 1, "unit": "µg/mL"}, {"measurement": "MIC", "setting": "M. tuberculosis H37Rv", "value": 1, "unit": "µg/mL"}, {"measurement": "MIC", "setting": "M. tuberculosis CDC1551", "value": 2, "unit": "µg/mL"}, {"measurement": "MIC", "setting": "M. tuberculosis P", "value": 2, "unit": "µg/mL"}, {"measurement": "MIC", "setting": "M. tuberculosis AB", "value": 2, "unit": "µg/mL"}, {"measurement": "MIC", "setting": "M. bovis BCG", "value": 0.5, "unit": "µg/mL"}, {"measurement": "effect on growth of THP1 cells", "setting": "[1]", "value": "not able to affect the growth of THP1 cells"}, {"measurement": "toxicity in treated mice", "setting": "[2]", "value": "no toxicity was observed"}, {"measurement": "growth inhibitory activity in infected macrophages", "setting": "[3]", "value": "comparabale with the inhibition observed for Rifampicin"}, {"measurement": "difference in antiviral activity with and without preincubation prior to viral infection", "setting": "virus (92TH594); Tables 5 and 6 compared", "value": "no detectable difference"}, {"measurement": "P24 values", "setting": "virus (92TH594); compound 2.5 μg/ml, added to the cells after viral infection", "value": 975, "unit": "pg/mL"}, {"measurement": "P24 values", "setting": "virus (92TH594); compound 2.5 μg/ml, added to the cells before viral infection", "value": 960, "unit": "pg/mL"}, {"measurement": "P24 values", "setting": "virus (92TH594); compound 10 μg/ml, added to the cells after viral infection", "value": 7, "unit": "pg/mL"}, {"measurement": "P24 values", "setting": "virus (92TH594); compound 10 μg/ml, added to the cells before viral infection", "value": 6, "unit": "pg/mL"}, {"measurement": "activity against Mycobacteria (in words)", "setting": "Mycobacteria", "value": "highest activity"}, {"measurement": "Anti-Fungal Activity (MIC)", "setting": "Candida crusei 6258^mdr", "value": 4, "unit": "µg/mL"}, {"measurement": "cytotoxicity in infected macrophages", "setting": "[4]", "value": "low cytotoxicity, similar to Rifampicin"}, {"measurement": "Anti-Fungal Activity (MIC)", "setting": "Candida albicans 90028", "value": 8, "unit": "µg/mL"}, {"measurement": "Anti-Fungal Activity (MIC)", "setting": "Candida albicans 90030", "value": 4, "unit": "µg/mL"}, {"measurement": "Anti-Fungal Activity (MIC)", "setting": "Candida dlabrata 250^mdr", "value": "4** μg/mL"}, {"measurement": "Anti-Fungal Activity (MIC)", "setting": "[5]", "value": 4, "unit": "µg/mL"}, {"measurement": "Anti-Fungal Activity (MIC)", "setting": "[6]", "value": 8, "unit": "µg/mL"}, {"measurement": "Anti-Fungal Activity (MIC)", "setting": "[7]", "value": 8, "unit": "µg/mL"}, {"measurement": "Anti-Fungal Activity (MIC)", "setting": "[8]", "value": 8, "unit": "µg/mL"}, {"measurement": "Anti-Fungal Activity (MIC)", "setting": "[9]", "value": 8, "unit": "µg/mL"}, {"measurement": "Anti-Fungal Activity (MIC)", "setting": "[10]", "value": "<1", "unit": "µg/mL"}]}
